What all share (assay): relative viability (nuclei count vs DMSO), 5 days (fraction); higher = more cells survive
Compound in the test “Salubrinal + Tozasertib”: O=C(/C=C/c1ccccc1)NC(NC(=S)Nc1cccc2cccnc12)C(Cl)(Cl)Cl [Salubrinal] + Cc1cc(Nc2cc(N3CCN(C)CC3)nc(Sc3ccc(NC(=O)C4CC4)cc3)n2)n[nH]1 [Tozasertib] (partner 0.1 µM)
A digest of the protocol: (§1)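 After 5 days of treatment, lung cancer cells in 1536-well plates were fixed and stained in a single step (final 0.05% Triton X-100, 1% formaldehyde, 1 ug/ml Hoechst) and their nuclei counted on 4× images. Treatment had been applied by pin tool the day after seeding as one drug alone or as a fixed anchor-drug dose with five library-drug doses (not always all listed) in √10 steps. Relative viability is the nuclei count of treated wells divided by that of vehicle wells, and values are medians of duplicate plates.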

Compound in test [1]: Cc1ccc2nc(NCCN)c3ncc(C)n3c2c1 + COc1cccc2cc(-c3nc([C@H]4CC[C@H](C(=O)O)CC4)n4ncnc(N)c34)[nH]c12 [OSI-027] (partner 0.5 µM)
In short, it runs like this: as §1

Compound in the test “Salubrinal + Linsitinib”: O=C(/C=C/c1ccccc1)NC(NC(=S)Nc1cccc2cccnc12)C(Cl)(Cl)Cl [Salubrinal] + C[C@]1(O)C[C@@H](c2nc(-c3ccc4ccc(-c5ccccc5)nc4c3)c3c(N)nccn32)C1 [Linsitinib] (partner 1 µM)
A digest of the protocol:
as §1

Compound in test [2]: Cc1ccc2nc(NCCN)c3ncc(C)n3c2c1 + CC1(C)CCC(c2ccc(Cl)cc2)=C(CN2CCN(c3ccc(C(=O)NS(=O)(=O)c4ccc(N[C@H](CCN5CCOCC5)CSc5ccccc5)c(S(=O)(=O)C(F)(F)F)c4)cc3)CC2)C1 [Navitoclax] (partner 0.5 µM)
In short, it runs like this: as §1

Regarding UMC-11, the relative viability in the test with Salubrinal + Tozasertib (first compound 0.08 µM) was found to be 0.208; with Salubrinal + Tozasertib (first compound 0.253 µM), 0.225; with Salubrinal + Tozasertib (first compound 0.8 µM) it was 0.21; in the test with Salubrinal + Tozasertib (first compound 2.53 µM), 0.186; with Salubrinal + Tozasertib (first compound 8 µM) it was 0.189; in test [1] (first compound 0.04 µM), 0.51. Moreover, the relative viability turned out to be 0.471 in test [1] (first compound 0.1265 µM); 0.481 in test [1] (first compound 0.4 µM); 0.416 in test [1] (first compound 1.265 µM); 0.47 in test [1] (first compound 4 µM); 1.25 in the test with Salubrinal + Linsitinib (first compound 0.08 µM); 0.807 with Salubrinal + Linsitinib (first compound 0.253 µM). The relative viability with Salubrinal + Linsitinib (first compound 0.8 µM) was 1.21; with Salubrinal + Linsitinib (first compound 2.53 µM), 0.998; with Salubrinal + Linsitinib (first compound 8 µM) it was 0.955; in test [2] (first compound 0.04 µM) it was 0.315; in test [2] (first compound 0.1265 µM), 0.342; in test [2] (first compound 0.4 µM), 0.33. Moreover, the relative viability turned out to be 0.324 in test [2] (first compound 1.265 µM) and 0.365 in test [2] (first compound 4 µM).

The record behind these values is the supplement of paper PMC10307832.
